The results in this text go back to the Deep4Chem optical property database.

The data set in a line: solvent given as SMILES.

Structures are written as SMILES.

`Cc1ccc(C2=CC(c3ccc(C)cc3)=[N+]3C2=Nc2c(-c4ccc(C)cc4)cc(-c4ccc(C)cc4)n2[B-]3(F)F)cc1` yielded an emission maximum (in ClC(Cl)Cl) of 697 nm.
Consider `CN1C(=O)/C(=C/c2ccncc2)N=C1c1ccccc1`, for which the emission maximum is, setting by setting: (in C1COCCO1) 471 nm; (in CC#N) 475 nm; (in CCO) 477 nm; (in CCOC(C)=O) 472 nm; (in O) 477 nm.
As for `CC(C)(C)c1ccc2c(c1)c1cc(C(C)(C)C)ccc1n2-c1ccc(-c2ccc3c(c2)C(=O)c2ccc(-c4ccc(-n5c6ccc(C(C)(C)C)cc6c6cc(C(C)(C)C)ccc65)cc4)cc2C3=O)cc1`, the emission maximum (in Cc1ccccc1) is on record as 558 nm and the emission maximum (in c1ccc2c(c1)c1ccccc1n2-c1ccc(-c2ccc(-n3c4ccccc4c4ccccc43)cc2)cc1) is reported as 550 nm.
`F[B-]1(F)n2c(-c3cccs3)cc(-c3cccs3)c2N=C2C(c3cccs3)=CC(c3cccs3)=[N+]21` came in with an emission maximum (in C1CCOC1) of 763 nm; an emission maximum (in CC#N) of 757 nm; an emission maximum (in CS(C)=O) of 775 nm; an emission maximum (in Cc1ccccc1) of 765 nm; an emission maximum (in ClCCl) of 764 nm.
For `C/C=C/C=C/C1=NC(=C\c2ccc([O-])cc2)/C(=O)N1C`, the emission maximum (in O) came out at 565 nm.
For the compound `C/C(=C\c1ccc(C)cc1)c1nc2ccccc2s1`, the emission maximum by setting is: (in C1CCCCC1) 390 nm; (in CO) 400 nm.
As for `CC(C)[Si](C#Cc1c2cc3ccccc3cc2c(C#C[Si](C(C)C)(C(C)C)C(C)C)c2nc3c(nc12)C1c2ccccc2C3c2ccccc21)(C(C)C)C(C)C`, the emission maximum (in CCCCCC) is 548 nm.
`COc1ccc2n1[B-](F)(F)[N+]1=C(c3ccccc3)C=CC1=C2c1ccc(C)cc1`: the emission maximum by setting is: (in C1CCCCC1) 553 nm; (in C1CCOC1) 555 nm; (in C1COCCO1) 556 nm; (in CCOC(C)=O) 552 nm; (in CO) 550 nm; (in Cc1ccccc1) 558 nm. Further, under “in ClC(Cl)Cl”, the emission maximum came to 557 nm.
On to `CC(C)[Si](C#Cc1c2nc3ccccc3nc2c(C#C[Si](C(C)C)(C(C)C)C(C)C)c2nc3c(ccc4cc5ccccc5cc43)nc12)(C(C)C)C(C)C`, for which the emission maximum (in CCCCCC) is given as 648 nm.
Turning to `Cc1ccc(C(=O)OCc2c(C)c(=O)n3c(=O)c(C)c(C)n23)cc1`, the emission maximum (in CCO) stood at 460 nm.
Where the note is “in Cc1ccccc1”, `Cc1ccc2c(c1)c1cc(Br)ccc1n2-c1c(C#N)c(-n2c3ccc(Br)cc3c3cc(Br)ccc32)c(-n2c3ccc(Br)cc3c3cc(Br)ccc32)c(C#N)c1-n1c2ccc(Br)cc2c2cc(Br)ccc21` came in with an emission maximum of 546 nm.
For the compound `CC(C)[Si](C#Cc1c2cc3ccccc3cc2c(C#C[Si](C(C)C)(C(C)C)C(C)C)c2nc3c(ccc4ccccc43)nc12)(C(C)C)C(C)C`, the emission maximum (in CCCCCC) is reported as 661 nm.
On to `C[Si]1(C)c2cc(-c3cccs3)ccc2C=Cc2ccc(-c3cccs3)cc21`, for which the emission maximum (in ClCCl) was 415 nm.
In turn, `O=Cc1ccc2nc(C#Cc3ccc(N(c4ccccc4)c4ccccc4)cc3)sc2c1` registered an emission maximum (in Cc1ccccc1) of 473 nm.
Consider `CCOC(CN1C(=O)C2=C(c3ccc(OC)c(OC)c3)N(CC(OCC)OCC)C(=O)C2=C1c1ccc(OC)c(OC)c1)OCC`, for which, where the note is “in ClC(Cl)Cl”, the emission maximum came out at 538 nm.
`c1cc2ccc3ccc4cc3c2cc1c1ccc2c(c1)c1cc(ccc1[C@]13OCCO[C@]21OCCO3)c1ccc2c(c1)c1cc4ccc1[C@]13OCCO[C@]21OCCO3` displayed an emission maximum (in Cc1ccccc1) of 388 nm.
As for `c1cc2ccc1-c1ccc(cc1)-c1ccc(s1)-c1ccc(cc1)-c1ccc(cc1)-c1ccc(s1)-c1ccc(cc1)-c1ccc(cc1)-c1ccc-2s1`, the emission maximum (in C1CCOC1) was found to be 523 nm.
Compound `O=C1OC(=O)C2=C1[Se][C@]13C2=C[C@H](c2ccccc21)c1ccccc13` had an emission maximum (in ClCCl) of 517 nm.
The same measure, in the same setting: in the case of `COc1ccc(-c2c3ccccc3c(C#Cc3ccccc3)c3ccccc23)cc1` it was 452 nm.
For the compound `COc1cc(OC)c2c(c1)c1cc3oc(=O)cc(C)c3cc1c1cc(OC)cc(OC)c12`, the emission maximum (in ClC(Cl)Cl) is 538 nm.
In the case of `CCN(CC)c1ccc(/N=N/c2nc3ccc(OC)cc3s2)cc1`, the emission maximum came to 583 nm (in CC#N) and 574 nm (in ClCCl).
Consider `CCCCCCCCCCCCOc1cc(C(=O)Nc2ccc(-c3ccc4c(c3)C(=O)c3cc(-c5ccc(NC(=O)c6cc(OCCCCCCCCCCCC)c(OCCCCCCCCCCCC)c(OCCCCCCCCCCCC)c6)cc5)ccc3-4)cc2)cc(OCCCCCCCCCCCC)c1OCCCCCCCCCCCC`, for which, where the note is “in C1CCOC1”, the emission maximum was determined as 542 nm.
The compound `CCCCc1cc2cccc3cc(CCCC)c4cc(-c5cc6[b-]7c(c5)c(CCCC)cc5cccc(cc6CCCC)[n+]75)cc1[b-]4[n+]23` registered an emission maximum (in C1CCCCC1) of 550 nm.
The compound `COC(=O)c1noc(-c2ccccc2)c1Cl` gave an emission maximum (in C1CCCCC1) of 344 nm.
On to `CCOC(=O)CCOc1ccc(C(c2c(C)[nH]c3ccccc23)c2c(C)[nH]c3ccccc23)cc1OC`, for which the emission maximum by setting is: (in C1CCCCC1) 330 nm; (in CC#N) 344 nm; (in CO) 350 nm; (in O) 351 nm.
For the compound `COC(=O)c1ccc(-c2ccc3c(c2)C(=O)c2cc(-c4ccc(C(=O)OC)cc4)ccc2-3)cc1`, where the note is “in C1CCOC1”, the emission maximum is listed as 366 nm.
In the case of `CCOC(=O)c1c(-c2cc3ccc(OC)cc3oc2=O)nn(-c2ccccc2)c1C(=O)OCC`, the emission maximum (in ClCCl) stood at 421 nm.
On the same count and under the same terms, with `O=C1c2cccc3c(C#CC#Cc4ccc5c6c(cccc46)C(=O)N(c4ccccc4)C5=O)ccc(c23)C(=O)N1c1ccccc1` the figure was 440 nm.
Where the note is “in CC#N”, `O=C(O)c1ccc(-c2ccc(-c3nc(-c4ccccc4)c4ccccn34)cc2)s1` yielded an emission maximum of 485 nm.
In turn, `Clc1ccc(/C=C(\c2ccccc2)c2nc3ccccc3o2)cc1` yielded an emission maximum (in CO) of 420 nm.
For the setting “in ClC(Cl)Cl”, `CO[Si](c1c2ccccc2cc2ccccc12)(c1c2ccccc2cc2ccccc12)c1c2ccccc2cc2ccccc12` showed an emission maximum of 439 nm.
Consider `COc1cc(/C=C/c2nc(N3CCOCC3)c3c([n+]2[O-])CCCC3)cc(OC)c1OC`, for which the emission maximum (in ClCCl) stood at 521 nm.
For the compound `c1ccc(N2c3ccc4ccccc4c3-c3c4ccccc4cc[n+]3[B-]2(c2ccccc2)c2ccccc2)cc1`, the emission maximum (in Cc1ccccc1) is 623 nm.
On to `COC(=O)C1CCN(c2ccc3c(N4CCCCC4)c4ccc(=[N+]5CCC(C(=O)OC)CC5)cc-4oc3c2)CC1` (stereo not drawn), for which the emission maximum (in ClCCl) turned out to be 552 nm.
With `O=[N+]([O-])c1ccc(S(=O)(=O)Nc2ccc(C#Cc3ccc4ccc5ccc(C#Cc6ccc(NS(=O)(=O)c7ccc([N+](=O)[O-])cc7[N+](=O)[O-])cc6)c6ccc3c4c56)cc2)c([N+](=O)[O-])c1`, the emission maximum (in CO) turned out to be 539 nm.
Take `CC(C)(C)c1ccc2c(c1)c1cc(C(C)(C)C)ccc1n2-c1ccc(S(=O)(=O)c2ccc(-n3c4ccc(C(C)(C)C)cc4c4cc(C(C)(C)C)ccc43)nc2)cn1`: the emission maximum (in Cc1ccccc1) is 444.37 nm and the emission maximum (in O=P(c1ccccc1)(c1ccccc1)c1ccc2sc3cccc(P(=O)(c4ccccc4)c4ccccc4)c3c2c1) is 467 nm.
Compound `CCOC(=O)c1cc(C(=O)OCC)c2ccc(N(C)C)cc2n1` had an emission maximum (in CCO) of 541 nm.
Regarding `CC1(C)CC(/C=C/c2ccc(-n3c4ccccc4c4ccccc43)cc2)=CC(=C(C#N)C#N)C1`, the emission maximum runs as follows: (in C1CCOC1) 571 nm; (in CC#N) 600 nm; (in CCO) 583 nm; (in CCOC(C)=O) 565 nm; (in ClCCl) 582 nm; (in c1ccccc1) 534 nm.
`CC1(C)c2ccccc2N(c2ccc3c(c2)c2cc(N4c5ccccc5C(C)(C)c5ccccc54)ccc2c2nc4ccccc4nc32)c2ccccc21`: the emission maximum (in Cc1ccccc1) is given as 553 nm and the emission maximum (in c1cc(-c2cccc(-n3c4ccccc4c4ccccc43)c2)cc(-n2c3ccccc3c3ccccc32)c1) was determined as 565 nm.
Turning to `c1ccc(-c2nn(-c3ccccc3)c3nc4ccccc4cc23)cc1`, the emission maximum is listed as 443.66 nm (in C1CCCCC1); 467.73 nm (in C1CCOC1); 478.01 nm (in CC#N); 472.59 nm (in CC(C)=O); 462.96 nm (in CCCCCl); 454.96 nm (in CCCCOCCCC). Where the note is “in CN(C)C=O”, this compound gave an emission maximum of 476.64 nm.
`Cc1c(-c2ccc(N3c4ccccc4C(C)(C)c4ccccc43)cc2)ncnc1-c1ccc(N2c3ccccc3C(C)(C)c3ccccc32)cc1`: the emission maximum was 477 nm (in Cc1ccccc1) and 481 nm (in O=P(c1ccccc1)(c1ccccc1)c1ccccc1Oc1ccccc1P(=O)(c1ccccc1)c1ccccc1).
`CCCN1c2ccccc2Sc2cc(/C=C\c3cc(=O)oc4ccccc34)ccc21` came in with an emission maximum (in ClC(Cl)Cl) of 618 nm.
On the same count and under the same terms, in the case of `Cc1ccc(-n2c3ccc(-c4ccc(-c5nc6ccccc6n5-c5ccccc5)cc4)cc3c3cc(-c4ccc(-c5nc6ccccc6n5-c5ccccc5)cc4)ccc32)cc1` it was 410 nm.
With `Cc1ccc(N/C=C/C=[NH+]c2ccc(C)cc2)cc1`, the emission maximum (in CS(C)=O) is given as 491 nm.
`CCc1nc2c(nc1CC)C(c1ccccc1)=[N+]1C2=Nc2c3nc(CC)c(CC)nc3c(-c3ccccc3)n2[B-]1(F)F` showed an emission maximum (in C1CCOC1) of 721 nm.
Take `N#Cc1cc(-n2c3ccccc3c3cccnc32)c(-n2c3ccccc3c3cccnc32)cc1C#N`: the emission maximum was 504.42 nm (in CC#N); 386.98 nm (in CCCCCC); 417.44 nm (in Cc1ccccc1); 468.37 nm (in ClCCl); 441.06 nm (in c1cc(-n2c3ccccc3c3ccccc32)cc(-n2c3ccccc3c3ccccc32)c1).
On to `Clc1nc(Nc2ccccc2)nc(Nc2ccc3cc4ccccc4cc3c2)n1`, for which the emission maximum reads like this: (in C1COCCO1) 436 nm; (in CC#N) 432 nm; (in CCCCOCCCC) 430 nm; (in CCOC(C)=O) 433 nm.
